Measured values published in patent US20110178171A1, “COMPOUNDS FOR CANCER THERAPY” (China Medical University, priority 2010, published 2011).

How the values were obtained:
PC3 cells = experiment: MTT growth inhibition assay, PC3; format: cell-based, human; conditions: for Viability (%) PC-3: 24 h (Table 2)
Experimental: (§1) The LNCaP (androgen-sensitive), PC3 (androgen in-dependent), human prostate cancer and normal human fibroblast 3T3 were obtained from American Type Culture Collection (Manassas, Va.) were maintained with RPMI 1640 medium containing 10% FBS and […] each of penicillin and streptomycin at […] in a humidified atmosphere with 5% CO2.
(§2) The viability of the cells after treated with various chemicals was evaluated using MTT assay preformed in triplicate (Mosmann T. 1983. Rapid colorimetric assay for cellular growth and survival: application to proliferation and cytotoxicity assays”. Journal of immunological methods. 65 (1-2): 55-63). Briefly, the cancer cells (5×10^3) were incubated in 96-well plates containing […] of the culture medium. Cells were permitted to adhere for 12-18 h then washed with phosphate buffered saline (PBS). Solutions were always prepared fresh by dissolving 0.2% DMSO or K8 in culture medium and added to various kind of tumor. After 48 h of exposure, K8 containing medium was removed, washed with PBS and replaced by fresh medium. The cells in each well were then incubated in culture medium with […] MTT for 4 h. After the medium were removed, […] of DMSO and […] of glycine buffer (0.1 M glycine, 0.1 M NaCl, pH 10.5) were added to each well. Absorbance at 570 nm of the maximum was detected by a PowerWave X Microplate ELISA Reader (Bio-TeK Instruments, Winoski, Vt.). The absorbance for DMSO treated cells was considered as 100%. The results were determined by three independent experiments.
Cytotoxicities of Z-K8 (Isochaihulactone) on LNCaP (AR-dependent), and PC3 (AR-independent) tumor cell line were examined in the manner described above. […]

LNCaP cells = experiment: MTT growth inhibition assay, LNCaP; conditions: for Viability (%) LNCaP: 24 h (Table 2); for Viability (%) / IC50: LNCaP; for Viability (%): 24 h (Table 1); for IC50: androgen-dependent prostate adenocarcinoma
Experimental: as §1, §2
Cytotoxicity of K8 (Isochaihulactone) on LNCaP cells was examined in the manner described above. The cells were treated with KS (Isochaihulactone), its Z-form, or its E-form of different concentrations ranging from 2.5 to 20 μM for 24 h.
Cytotoxicities of Z-K8 (Isochaihulactone) on LNCaP (AR-dependent), and PC3 (AR-independent) tumor cell line were examined in the manner described above. The cells were treated with the Z- or E-form K8 (Isochaihulactone) of different concentrations ranging from 0.3125 to 5 μM for 24 h.

With COc1cc(/C=C2\C(=O)OCC2Cc2ccc3c(c2)OCO3)cc(OC)c1OC (racemic) [Z-K8, Racemic (Z)-β-(3′,4′-Methylenedioxybenzyl)-α-(3′,4′,5′-trimethoxybenzylidene)-γ-butyrolactone] the “Viability (%) PC-3” value (PC3 cells; 0.625 μM) was 92.0%, the “Viability (%) PC-3” value (PC3 cells; 1.25 μM) was 84.5% and the “Viability (%) PC-3” value (PC3 cells; 2.5 μM) was 74.9%. The “Viability (%) PC-3” value (PC3 cells; 5 μM) was 44.9%, the “Viability (%) PC-3” value (PC3 cells; 10 μM) was 28.3% and the IC50 (PC3 cells; PC3, androgen-independent prostate adenocarcinoma) was 100000 nM. The “Viability (%) LNCaP” value (LNCaP cells; 0.625 μM) was 68.9%, the “Viability (%) LNCaP” value (LNCaP cells; 1.25 μM) was 43.7% and the “Viability (%) LNCaP” value (LNCaP cells; 2.5 μM) was 21.7%. For the same compound, the “Viability (%) LNCaP” value (LNCaP cells; 5 μM) was 18.4%, the “Viability (%) LNCaP” value (LNCaP cells; 10 μM) was 16.9% and the “Viability (%)” value (LNCaP cells; 2.5 μM) was 33.0%. For the same compound, the “Viability (%)” value (LNCaP cells; 5 μM) was 18.7%, the “Viability (%)” value (LNCaP cells; 10 μM) was 17.2% and the “Viability (%)” value (LNCaP cells; 20 μM) was 16.1%. The IC50 (LNCaP cells) was 1250 nM and the IC50 (LNCaP cells; listed as Z-form of K8) was 1000 nM.
